Test results published in the NIST ThermoML archive (doi:10.1016/j.fluid.2013.06.031).

Settings: Liquid, Closed cell (Static) method

CC(F)(F)CC(F)(F)F [1,1,1,3,3-pentafluorobutane]
Settings | vapor or sublimation pressure [kPa]
332.79 K | 194.9
333.18 K | 197.1
342.65 K | 261.5
347.94 K | 303.9
352.87 K | 348.7
357.77 K | 401.1
363.03 K | 459.2
367.94 K | 519.8
372.87 K | 586.1
378.04 K | 662.3
382.95 K | 741.4
387.88 K | 828.9
393.02 K | 927.2
398.06 K | 1036.4
402.92 K | 1146
408.07 K | 1271.5
413.09 K | 1403.8
418 K | 1542.4
423.13 K | 1698.6
428.15 K | 1862.7
433.05 K | 2034.5
438.03 K | 2225.4
442.99 K | 2425.5
447.89 K | 2637.1
